Results on 30 molecules are retold here after patent publication US20260098030A1, “NEGATIVE ALLOSTERIC MODULATORS OF METABOTROPIC GLUTAMATE RECEPTOR 2” (Vanderbilt University, priority 2022, published 2026).

T2 sequence (Q14416 19-872): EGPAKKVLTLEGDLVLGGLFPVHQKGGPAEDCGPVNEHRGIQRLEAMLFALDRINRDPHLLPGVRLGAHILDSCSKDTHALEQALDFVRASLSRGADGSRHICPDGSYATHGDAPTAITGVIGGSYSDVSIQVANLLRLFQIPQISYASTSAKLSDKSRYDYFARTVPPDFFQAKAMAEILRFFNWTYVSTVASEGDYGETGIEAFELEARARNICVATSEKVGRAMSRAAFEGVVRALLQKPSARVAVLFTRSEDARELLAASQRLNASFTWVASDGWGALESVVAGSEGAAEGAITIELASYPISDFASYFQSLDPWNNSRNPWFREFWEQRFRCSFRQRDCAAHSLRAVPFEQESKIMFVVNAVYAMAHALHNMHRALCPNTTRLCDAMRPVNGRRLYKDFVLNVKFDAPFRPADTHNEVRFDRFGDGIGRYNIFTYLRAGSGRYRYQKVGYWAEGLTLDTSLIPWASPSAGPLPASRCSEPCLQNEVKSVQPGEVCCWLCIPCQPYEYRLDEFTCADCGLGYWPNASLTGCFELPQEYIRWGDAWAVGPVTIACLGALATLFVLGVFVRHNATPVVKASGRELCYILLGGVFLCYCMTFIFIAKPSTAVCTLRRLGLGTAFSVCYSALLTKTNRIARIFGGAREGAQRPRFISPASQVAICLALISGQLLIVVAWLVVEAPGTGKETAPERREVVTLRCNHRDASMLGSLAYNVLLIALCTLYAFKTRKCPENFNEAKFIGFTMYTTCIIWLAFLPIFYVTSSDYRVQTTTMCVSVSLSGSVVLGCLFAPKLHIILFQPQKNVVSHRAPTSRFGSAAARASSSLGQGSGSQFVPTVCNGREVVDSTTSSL
T1 sequence (P31421 19-872): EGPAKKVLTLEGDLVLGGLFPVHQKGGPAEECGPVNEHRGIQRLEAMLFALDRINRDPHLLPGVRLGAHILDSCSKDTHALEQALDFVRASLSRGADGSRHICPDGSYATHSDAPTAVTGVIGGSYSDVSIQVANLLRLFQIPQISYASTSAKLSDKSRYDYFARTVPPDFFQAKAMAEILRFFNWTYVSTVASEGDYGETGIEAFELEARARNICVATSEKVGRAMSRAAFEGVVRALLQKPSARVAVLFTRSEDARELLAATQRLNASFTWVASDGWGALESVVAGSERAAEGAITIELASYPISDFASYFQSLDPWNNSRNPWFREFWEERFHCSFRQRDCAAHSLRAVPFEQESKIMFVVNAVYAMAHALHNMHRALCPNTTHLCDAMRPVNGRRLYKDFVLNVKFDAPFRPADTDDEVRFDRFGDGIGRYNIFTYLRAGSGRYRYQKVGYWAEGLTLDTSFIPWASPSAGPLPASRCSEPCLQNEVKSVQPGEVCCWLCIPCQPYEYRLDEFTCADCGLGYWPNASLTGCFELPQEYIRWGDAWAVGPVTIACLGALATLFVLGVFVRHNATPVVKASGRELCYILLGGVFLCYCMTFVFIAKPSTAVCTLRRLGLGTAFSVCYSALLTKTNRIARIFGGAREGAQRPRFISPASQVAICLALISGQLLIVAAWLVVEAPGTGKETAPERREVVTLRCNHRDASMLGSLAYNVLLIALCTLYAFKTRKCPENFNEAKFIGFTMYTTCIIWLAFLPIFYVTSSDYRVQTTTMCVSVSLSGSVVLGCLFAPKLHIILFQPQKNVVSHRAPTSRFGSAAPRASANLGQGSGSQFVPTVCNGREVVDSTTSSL

The first experiment concerns the target T1, rat mGlu2 (Rattus norvegicus, UniProt P31421).
T1 construct: expressed in transfected cells; host or cells: HEK-293 cells stably co-expressing GIRK channels
Description: mGlu GIRK cell-based thallium flux assay, rat mGlu2. The conditions noted are these: HEK-293 cells co-expressing rat mGlu2 and GIRK, EC80 glutamate. Put shortly: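 HEK-293 cells stably co-expressing GIRK with human mGlu3, human mGlu2 or rat mGlu2 were loaded 1 h at 25° C with Thallos dye, then given compound (30 μM to 1.5 nM final, 10-point) for 2 min 20 s before EC80 glutamate plus thallium. Baseline-corrected fluorescence slope, normalized to ECmax glutamate, fitted to 4-parameter logistic for IC50.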
One may read the IC50 as the concentration that inhibits the measured activity by half. The low end stands for greater potency, the high end for weaker potency. Molecule `Cn1cc(-c2cc3c(cc2-c2ccc(F)cc2)C(=O)NC3)cn1` [Compound 1, 6-(4-fluorophenyl)-5-(1-methyl-1H-pyrazol-4-yl)isoindolin-1-one] gave a half-maximal inhibitory concentration (IC50) above 10 µM.
The same measure, in the same setting: as for `O=C1NCc2cc(-c3cnco3)c(-c3ccc(F)cc3)cc21` [Compound 2, 6-(4-fluorophenyl)-5-(oxazol-5-yl)isoindolin-1-one], the figure is above 10 µM.

Another experiment has as its target T2, human mGlu2 (Homo sapiens, UniProt Q14416).
T2 construct: expressed in transfected cells; host or cells: HEK-293 cells stably co-expressing GIRK channels
The experiment can be described thus: mGlu GIRK cell-based thallium flux assay, human mGlu2. The conditions noted are these: HEK-293 cells co-expressing human mGlu2 and GIRK, EC80 glutamate. How it is done: Human embryonic kidney (HEK-293) cell lines stably co-expressing human or rat mGlu2 and G protein-coupled inwardly rectifying potassium (GIRK) channels, or human mGlu3 and GIRK, were used for in vitro evaluation of compound activity in thallium flux assay using a fluorescent thallium indicator dye.
The day before the assay, GIRK cells co-expressing human mGlu3, human or rat mGlu2, as described above, were plated in black-walled, clear-bottomed, amine-coated 384-well plates at a density of 15,000 cells/20 μL/well in the assay medium (glutamine-depleted basal DMEM supplemented with 10% dialyzed FBS, 20 mM HEPES, 1 mM sodium pyruvate). Cells were incubated at 37° C. in the presence of 5% CO2. The next day, assay buffer (Hanks balanced salt solution, 20 mM HEPES, 4.16 mM sodium bicarbonate, pH 7.2) was prepared to dilute compounds and Thallos AM fluorescent dye solution. The 2× Thallos dye solution (final concentration 0.34 μM to the cells) was prepared by mixing the dye stock (2.97 mM in DMSO) to 1:1 with 10% pluronic acid before adding to the assay buffer. Cells were washed with assay buffer using a microplate washer to remove the medium, resulting in 20 μL of buffer remaining in each well. Immediately, 20 μL of 2× Thallos dye solution was added to cells, and incubated for one hour at 25° C. During the cell dye loading incubation period, a 10-point concentration serial dilution of compound was created from a 10 mM DMSO compound stock by performing a 1:3 serial dilution in DMSO using the Bravo liquid handler. The 2× compound plate was generated by transferring 0.24 μL of the diluted compound in each well to a daughter plate using an Echo acoustic liquid handler. This is further diluted in 40 μL assay buffer, resulting in a range from 30 μM to 1.5 nM final concentration in the assay. The agonist plate (5×) was prepared to include EC80 glutamate concentration (a concentration to elicit 80% of a maximally effective glutamate concentration) in thallium buffer (125 mM […], 1 mM magnesium sulfate, 1.8 mM calcium sulfate, 5 mM glucose, 10 mM HEPES, pH 7.2, 12.5 mM thallium sulfate).
After dye-loading, cell plates were washed with assay buffer to remove excess extracellular dye using a microplate washer, resulting in 20 μL of buffer remaining in each well. After a ten-minute equilibration period, cell, compound and agonist plates were loaded into a Hamamatsu μCell kinetic imaging plate reader equipped with liquid handler to monitor fluorescence changes at 480 nm excitation and 540 nm emission settings. Briefly, after collection of baseline fluorescence, 20 μL of compound was added and incubated for two minutes and twenty seconds. This is immediately followed by adding 10 μL of glutamate-thallium buffer to the wells containing compound. The fluorescent signal was monitored an additional 2.5 minutes after the glutamate addition. Multiple reference wells containing no compound received either no glutamate (for a baseline reference), EC80 glutamate, or ECmax glutamate (for normalization to maximum response). Fluorescence was measured throughout the experiment at a frequency of 1 measurement per every 2 seconds before the glutamate addition and a frequency of 1 measurement per every 1 second after the glutamate addition. Each compound concentration series occurred one time in each plate, and replicates from two or three plates were used in each experimental run. Thallium solutions were handled and disposed of according to guidelines from the Vanderbilt University Chemical Safety department.
Data were normalized using a static ratio function (F/F0) by dividing every fluorescent measurement by the initial fluorescent value for the corresponding well. The increase in signal resulting from the glutamate/thallium addition of the second add was measured by determining the slope from 3 seconds to 13 seconds after the addition. […]
As for `Cn1cc(-c2cc3c(cc2-c2ccc(F)cc2)C(=O)NC3)cn1` [Compound 1, 6-(4-fluorophenyl)-5-(1-methyl-1H-pyrazol-4-yl)isoindolin-1-one], the IC50 is above 10 µM.
Still for that read-out and setting: as for `O=C1NCc2cc(-c3cnco3)c(-c3ccc(F)cc3)cc21` [Compound 2, 6-(4-fluorophenyl)-5-(oxazol-5-yl)isoindolin-1-one], the figure is 5.84 µM; as for `COc1ccc(-c2cc3c(cc2-c2cccc(C#N)c2)CNC3=O)cc1F` [Compound 171, 3-(6-(3-fluoro-4-methoxyphenyl)-1-oxoisoindolin-5-yl)benzonitrile], 3.55 µM.
Regarding `COc1ccc(-c2cc3c(cc2-c2cccc(C#N)c2)CNC3=O)cc1C#N` [Compound 172, 5-(6-(3-cyanophenyl)-3-oxoisoindolin-5-yl)-2-methoxybenzonitrile], the IC50 was above 10 µM.
`COc1ccc(-c2cc3c(cc2-c2cccc(C#N)c2)CNC3=O)c(Cl)c1` [Compound 173, 3-(6-(2-chloro-4-methoxyphenyl)-1-oxoisoindolin-5-yl)benzonitrile] registered an IC50 of 7.34 µM.
On the same count and under the same terms, as for `COc1cc(F)c(-c2cc3c(cc2-c2cccc(C#N)c2)CNC3=O)cc1F` [Compound 174, 3-(6-(2,5-difluoro-4-methoxyphenyl)-1-oxoisoindolin-5-yl)benzonitrile], the figure is above 10 µM; as for `COc1ccc(-c2cc3c(cc2-c2cccc(C#N)c2)CNC3=O)c(C)c1` [Compound 175, 3-(6-(4-methoxy-2-methylphenyl)-1-oxoisoindolin-5-yl)benzonitrile], above 10 µM.
Molecule `N#Cc1cccc(-c2cc3c(cc2-c2cc(C#N)ccc2F)C(=O)NC3)c1` [Compound 176, 3-(6-(3-cyanophenyl)-3-oxoisoindolin-5-yl)-4-fluorobenzonitrile] had an IC50 above 10 µM.
Same read-out and setting: as for `Cc1cc(-c2cc3c(cc2-c2cccc(C#N)c2)CNC3=O)c(F)cc1F` [Compound 177, 3-(6-(2,4-difluoro-5-methylphenyl)-1-oxoisoindolin-5-yl)benzonitrile], the figure is 1.35 µM.
The same measure, in the same setting: for `N#Cc1cccc(-c2cc3c(cc2-c2ccc(F)c(C#N)c2)C(=O)NC3)c1` [Compound 178, 5-(6-(3-cyanophenyl)-3-oxoisoindolin-5-yl)-2-fluorobenzonitrile] the value was above 10 µM.
On the same count and under the same terms, as for `N#Cc1cccc(-c2cc3c(cc2-c2ccc(C#N)c(C(F)(F)F)c2)C(=O)NC3)c1` [Compound 179, 4-(6-(3-cyanophenyl)-3-oxoisoindolin-5-yl)-2-(trifluoromethyl)benzonitrile], the figure is above 10 µM; as for `N#Cc1cccc(-c2cc3c(cc2-c2cc(C(F)(F)F)ccc2F)C(=O)NC3)c1` [Compound 180, 3-(6-(2-fluoro-5-(trifluoromethyl)phenyl)-1-oxoisoindolin-5-yl)benzonitrile], above 10 µM.
`Cc1cc(-c2cc3c(cc2-c2cccc(C#N)c2)CNC3=O)c(F)cc1C#N` [Compound 181, 4-(6-(3-cyanophenyl)-3-oxoisoindolin-5-yl)-5-fluoro-2-methylbenzonitrile] showed an IC50 above 10 µM.
Same read-out and setting: for `COc1c(F)cc(-c2cc3c(cc2-c2cccc(C#N)c2)CNC3=O)cc1F` [Compound 182, 3-(6-(3,5-difluoro-4-methoxyphenyl)-1-oxoisoindolin-5-yl)benzonitrile] the value was above 10 µM.
Still for that read-out and setting: as for `N#Cc1cccc(-c2cc3c(cc2-c2cccc(C#N)c2F)C(=O)NC3)c1` [Compound 183, 3-(6-(3-cyanophenyl)-3-oxoisoindolin-5-yl)-2-fluorobenzonitrile], the figure is above 10 µM; as for `COc1ccc(-c2cc3c(cc2-c2cccc(C#N)c2)CNC3=O)c(F)c1F` [Compound 184, 3-(6-(2,3-difluoro-4-methoxyphenyl)-1-oxoisoindolin-5-yl)benzonitrile], 1.13 µM.
With `N#Cc1cccc(-c2cc3c(cc2-c2cc(F)ccc2F)C(=O)NC3)c1` [Compound 185, 3-(6-(2,5-difluorophenyl)-1-oxoisoindolin-5-yl)benzonitrile], the IC50 is above 10 µM.
Still for that read-out and setting: as for `COc1ccc(F)cc1-c1cc2c(cc1-c1cccc(C#N)c1)CNC2=O` [Compound 186, 3-(6-(5-fluoro-2-methoxyphenyl)-1-oxoisoindolin-5-yl)benzonitrile], the figure is above 10 µM; as for `N#Cc1cccc(-c2cc3c(cc2-c2cc(F)ccc2C#N)C(=O)NC3)c1` [Compound 187, 2-(6-(3-cyanophenyl)-3-oxoisoindolin-5-yl)-4-fluorobenzonitrile], 9.58 µM.
Same read-out and setting: for `Cc1ccc(C#N)cc1-c1cc2c(cc1-c1cccc(C#N)c1)CNC2=O` [Compound 188, 3-(6-(3-cyanophenyl)-3-oxoisoindolin-5-yl)-4-methylbenzonitrilc] the value was above 10 µM; for `N#Cc1cccc(-c2cc3c(cc2-c2cc(F)cc(C#N)c2)C(=O)NC3)c1` [Compound 189, 3-(6-(3-cyanophenyl)-3-oxoisoindolin-5-yl)-5-fluorobenzonitrile], above 10 µM.
On the same count and under the same terms, for `Cn1ccc(CCc2cc3c(cc2-c2ccc(F)cc2F)C(=O)NC3)n1` [Compound A1, 6-(2,4-difluorophenyl)-5-(2-(1-methyl-1H-pyrazol-3-yl)ethyl)isoindolin-1-one] the value was 0.191 µM; for `O=C1NCc2cc(CCc3cncnc3)c(-c3ccc(F)cc3F)cc21` [Compound A2, 6-(2,4-difluorophenyl)-5-(2-(pyrimidin-5-yl)ethyl)isoindolin-1-one], 0.667 µM; for `[2H]C([2H])(c1ccn(C)n1)C([2H])([2H])c1cc2c(cc1-c1ccc(F)cc1F)C(=O)NC2` [Compound A3, 6-(2,4-difluorophenyl)-5-(2-(1-methyl-1H-pyrazol-3-yl)ethyl-1,1,2,2-d4)isoindolin-1-one], 0.218 µM.
Molecule `N#Cc1cccc(CCc2cc3c(cc2-c2ccc(F)cc2F)C(=O)NC3)c1` [Compound A4, 3-(2-(6-(2,4-difluorophenyl)-1-oxoisoindolin-5-yl)ethyl)benzonitrile] showed an IC50 of 0.481 µM.
`[2H]C1([2H])NC(=O)c2cc(-c3ccc(F)cc3F)c(C([2H])([2H])C([2H])([2H])c3ccn(C)n3)cc21` [Compound A5, 6-(2,4-difluorophenyl)-5-(2-(1-methyl-1H-pyrazol-3-yl)ethyl-1,1,2,2-d4)isoindolin-1-one-3,3-d2] came in with an IC50 of 0.205 µM.
On the same count and under the same terms, for `[2H]C([2H])(c1cc2c(cc1-c1ccc(F)cc1F)C(=O)NC2)C([2H])([2H])c1ccnn1C` [Compound A6, 6-(2,4-difluorophenyl)-5-(2-(1-methyl-1H-pyrazol-5-yl)ethyl-1,1,2,2-d4)isoindolin-1-one] the value was 0.287 µM; for `Cn1nccc1CCc1cc2c(cc1-c1ccc(F)cc1F)C(=O)NC2` [Compound A7, 6-(2,4-difluorophenyl)-5-(2-(1-methyl-1H-pyrazol-5-yl)ethyl)isoindolin-1-one], 0.208 µM.
On the same count and under the same terms, for `O=C1NCc2cc(CCc3ccn(C4CC4)n3)c(-c3ccc(F)cc3F)cc21` [Compound A8, 5-(2-(1-cyclopropyl-1H-pyrazol-3-yl)ethyl)-6-(2,4-difluorophenyl)isoindolin-1-one] the value was 0.413 µM; for `Cn1nc(CCc2cc3c(cc2-c2ccc(F)cc2F)C(=O)NC3)cc1C#N` [Compound A9, 3-(2-(6-(2,4-difluorophenyl)-1-oxoisoindolin-5-yl)ethyl)-1-methyl-1H-pyrazole-5-carbonitrile], 0.273 µM.
